From patent publication US9221756B2, “Pyrrole derivatives” (priority 2011, dated 2015)

What follows are molecules tested against pneumolysin (Streptococcus pneumoniae serotype 2, UniProt Q04IN8) (assay: Inhibition of the haemolytic activity of pneumolysin (sheep erythrocytes)). Conditions: IC50, inhibition of pneumolysin-induced haemolysis of sheep erythrocytes; class symbols of Table 1.
Assay type: cell-based

Sequence of pneumolysin (Q04IN8 whole entry): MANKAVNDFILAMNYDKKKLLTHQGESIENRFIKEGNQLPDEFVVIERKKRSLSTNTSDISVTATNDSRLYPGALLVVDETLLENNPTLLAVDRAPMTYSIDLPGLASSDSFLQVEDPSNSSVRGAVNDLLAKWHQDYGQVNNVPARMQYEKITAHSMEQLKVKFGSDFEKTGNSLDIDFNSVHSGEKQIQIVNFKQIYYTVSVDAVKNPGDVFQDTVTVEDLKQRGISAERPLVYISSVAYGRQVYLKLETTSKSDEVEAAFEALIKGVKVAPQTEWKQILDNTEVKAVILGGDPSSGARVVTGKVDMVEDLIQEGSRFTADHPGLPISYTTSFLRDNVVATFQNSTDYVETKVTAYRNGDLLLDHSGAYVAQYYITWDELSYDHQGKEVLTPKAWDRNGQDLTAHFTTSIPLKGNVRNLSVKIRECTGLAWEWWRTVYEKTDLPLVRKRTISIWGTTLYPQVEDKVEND

Q: With `COc1ccc(-n2c(C(=O)OC(C)C)c(OC(=O)C(C)(C)COCCOCCOP(=O)(O)O)c(OC(=O)C(C)(C)COCCOCCOP(=O)(O)O)c2C(=O)N(C)C)cc1` [UL1-122, 2-(dimethylcarbamoyl)-5-(isopropoxycarbonyl)-1-(4-methoxyphenyl)-1H-pyrrole-3,4-diyl bis(2,2-dimethyl-3-(2-(2-(phosphonooxy)ethoxy)ethoxy)propanoate)] as the molecule, how does the IC50 read?
A: Its IC50 is < 10 µM.

Q: Which IC50 does the source give for `COc1ccc(-n2c(C(=O)N(C)C)c(OC(=O)C3CCNCC3)c(OC(=O)C3CCNCC3)c2C(=O)N(C)C)cc1` [UL1-123, 2,5-bis(dimethylcarbamoyl)-1-(4-methoxyphenyl)-1H-pyrrole-3,4-diyl bis(piperidine-4-carboxylate)] here?
A: The IC50 was < 10 µM.

Q: For `COc1ccc(-n2c(C(=O)N(C)C)c(OC(=O)c3ccc(COP(=O)(O)O)cc3)c(OC(=O)c3ccc(COP(=O)(O)O)cc3)c2C(=O)N(C)C)cc1` [UL1-124, 2,5-bis(dimethylcarbamoyl)-1-(4-methoxyphenyl)-1H-pyrrole-3,4-diyl bis(4-((phosphonooxy)methyl)benzoate)], which IC50 is on record?
A: Its IC50 is < 10 µM.

Q: For `COc1ccc(-n2c(C(=O)N(C)C)c(O)c(O)c2P(C)(C)=O)cc1` [UL1-125, 5-(dimethylphosphoryl)-3,4-dihydroxy-1-(4-methoxyphenyl)-N,N-dimethyl-1H-pyrrole-2-carboxamide], which IC50 is on record?
A: The IC50 was < 10 µM.

Q: Which IC50 does the source give for `COc1ccc(-n2c(C(=O)N(C)C)c(OC(=O)[C@H]3CC[C@H](COP(=O)(O)O)CC3)c(OC(=O)[C@H]3CC[C@H](COP(=O)(O)O)CC3)c2C(=O)N(C)C)cc1` [UL1-126, (1R,1′R,4R,4′R)-2,5-bis(dimethylcarbamoyl)-1-(4-methoxyphenyl)-1H-pyrrole-3,4-diyl bis(4-((phosphonooxy)methyl)cyclohexanecarboxylate)] here?
A: Its IC50 is < 10 µM.

Q: With `CCOC(=O)c1c(O)c(O)c(C(=O)OCC)n1-c1ccccc1` [UL2-002, diethyl 3,4-dihydroxy-1-phenyl-1H-pyrrole-2,5-dicarboxylate] as the molecule, how does the IC50 read?
A: The IC50 was < 10 µM.

Q: For `CCOC(=O)c1c(O)c(O)c(C(=O)OCC)n1-c1ccc(F)cc1` [UL2-003, diethyl 1-(4-fluorophenyl)-3,4-dihydroxy-1H-pyrrole-2,5-dicarboxylate], which IC50 is on record?
A: The IC50 was 10 to 20 µM.

Q: How did the IC50 turn out when `CCOC(=O)c1c(O)c(O)c(C(=O)OCC)n1-c1cccc(OC)c1` [UL2-004, diethyl 3,4-dihydroxy-1-(3-methoxyphenyl)-1H-pyrrole-2,5-dicarboxylate] was run?
A: The IC50 was 10 to 20 µM.

Q: For `CCOC(=O)c1c(O)c(O)c(C(=O)OCC)n1-c1ccc(OC(F)(F)F)cc1` [UL2-005, diethyl 3,4-dihydroxy-1-(4-(trifluoromethoxy)phenyl)-1H-pyrrole-2,5-dicarboxylate], which IC50 is on record?
A: The IC50 was < 10 µM.

Q: With `CCOC(=O)c1c(O)c(O)c(C(=O)OCC)n1-c1ccc(C(C)C)cc1` [UL2-006, diethyl 3,4-dihydroxy-1-(4-isopropylphenyl)-1H-pyrrole-2,5-dicarboxylate] as the molecule, how does the IC50 read?
A: Its IC50 is < 10 µM.

Q: With `CCOC(=O)c1c(O)c(O)c(C(=O)OCC)n1-c1ccc(Oc2ccccc2)cc1` [UL2-007, diethyl 3,4-dihydroxy-1-(4-phenoxyphenyl)-1H-pyrrole-2,5-dicarboxylate] as the molecule, how does the IC50 read?
A: The IC50 was < 10 µM.

Q: For `CCOC(=O)c1c(O)c(O)c(C(=O)OCC)n1-c1ccc(OCC)cc1` [UL2-008, diethyl 1-(4-ethoxyphenyl)-3,4-dihydroxy-1H-pyrrole-2,5-dicarboxylate], which IC50 is on record?
A: The IC50 was < 10 µM.

Q: How did the IC50 turn out when `CCOC(=O)c1c(O)c(O)c(C(=O)OCC)n1-c1ccc(CC)cc1` [UL2-009, diethyl 1-(4-ethylphenyl)-3,4-dihydroxy-1H-pyrrole-2,5-dicarboxylate] was run?
A: The IC50 was < 10 µM.

Q: How did the IC50 turn out when `CCOC(=O)c1c(O)c(O)c(C(=O)OCC)n1-c1ccc(C)cc1` [UL2-010, diethyl 3,4-dihydroxy-1-(p-tolyl)-1H-pyrrole-2,5-dicarboxylate] was run?
A: The IC50 was < 10 µM.

Q: With `CCOC(=O)c1c(O)c(O)c(C(=O)OCC)n1-c1ccc(OC)c(OC)c1` [UL2-011, diethyl 1-(3,4-dimethoxyphenyl)-3,4-dihydroxy-1H-pyrrole-2,5-dicarboxylate] as the molecule, how does the IC50 read?
A: The IC50 was < 10 µM.

Q: `CCOC(=O)c1c(O)c(O)c(C(=O)OCC)n1-c1ccc(Cl)cc1` [UL2-012, diethyl 1-(4-chlorophenyl)-3,4-dihydroxy-1H-pyrrole-2,5-dicarboxylate] was tested. Which IC50 did it give?
A: Its IC50 is < 10 µM.

Q: With `CCOC(=O)c1c(O)c(O)c(C(=O)OCC)n1-c1ccc(C(F)(F)F)cc1` [UL2-013, diethyl 3,4-dihydroxy-1-(4-(trifluoromethyl)phenyl)-1H-pyrrole-2,5-dicarboxylate] as the molecule, how does the IC50 read?
A: The IC50 was < 10 µM.

Q: With `CCOC(=O)c1c(O)c(O)c(C(=O)OCC)n1-c1cc(OC)c(OC)c(OC)c1` [UL2-014, diethyl 3,4-dihydroxy-1-(3,4,5-trimethoxyphenyl)-1H-pyrrole-2,5-dicarboxylate] as the molecule, how does the IC50 read?
A: The IC50 was < 10 µM.

Q: For `CCOC(=O)c1c(O)c(O)c(C(=O)OCC)n1-c1ccc(OC)cc1OC` [UL2-015, diethyl 1-(2,4-dimethoxyphenyl)-3,4-dihydroxy-1H-pyrrole-2,5-dicarboxylate], which IC50 is on record?
A: The IC50 was < 10 µM.

Q: With `CCCOc1ccc(-n2c(C(=O)OCC)c(O)c(O)c2C(=O)OCC)cc1` [UL2-016, diethyl 3,4-dihydroxy-1-(4-propoxyphenyl)-1H-pyrrole-2,5-dicarboxylate] as the molecule, how does the IC50 read?
A: The IC50 was < 10 µM.

Q: Which IC50 does the source give for `CCOC(=O)c1c(O)c(O)c(C(=O)OCC)n1-c1cc(F)c(OCC)c(F)c1` [UL2-017, diethyl 1-(4-ethoxy-3,5-difluorophenyl)-3,4-dihydroxy-1H-pyrrole-2,5-dicarboxylate] here?
A: Its IC50 is < 10 µM.

Q: How did the IC50 turn out when `CCOC(=O)c1c(O)c(O)c(C(=O)OCC)n1-c1cccc(Oc2ccccc2)c1` [UL2-018, diethyl 3,4-dihydroxy-1-(3-phenoxyphenyl)-1H-pyrrole-2,5-dicarboxylate] was run?
A: Its IC50 is < 10 µM.

Q: `CCOC(=O)c1c(O)c(O)c(C(=O)OCC)n1-c1ccc2c(c1)OCO2` [UL2-019, diethyl 1-(benzo[d][1,3]dioxol-5-yl)-3,4-dihydroxy-1H-pyrrole-2,5-dicarboxylate] was tested. Which IC50 did it give?
A: The IC50 was 20 to 60 µM.

Q: How did the IC50 turn out when `COc1ccc(-n2c(C(=O)OC(C)C)c(O)c(O)c2C(=O)OC(C)C)cc1` [UL2-020, diisopropyl 3,4-dihydroxy-1-(4-methoxyphenyl)-1H-pyrrole-2,5-dicarboxylate] was run?
A: The IC50 was < 10 µM.

Q: For `CCOC(=O)c1c(O)c(O)c(C(=O)OC(C)C)n1-c1ccc(OC)cc1` [UL2-021, 2-ethyl 5-isopropyl 3,4-dihydroxy-1-(4-methoxyphenyl)-1H-pyrrole-2,5-dicarboxylate], which IC50 is on record?
A: Its IC50 is < 10 µM.

Q: For `COc1ccc(-n2c(C(=O)OC(C)(C)C)c(O)c(O)c2C(=O)OC(C)(C)C)cc1` [UL2-022, di-tert-butyl 3,4-dihydroxy-1-(4-methoxyphenyl)-1H-pyrrole-2,5-dicarboxylate], which IC50 is on record?
A: The IC50 was < 10 µM.

Q: For `CCOC(=O)c1c(O)c(O)c(C(=O)OCC)n1-c1ccccc1OC` [UL2-023, diethyl 3,4-dihydroxy-1-(2-methoxyphenyl)-1H-pyrrole-2,5-dicarboxylate], which IC50 is on record?
A: The IC50 was 20 to 60 µM.

Q: How did the IC50 turn out when `CCOC(=O)c1c(O)c(O)c(C(=O)OCC)n1-c1ccc(C#N)cc1` [UL2-024, diethyl 1-(4-cyanophenyl)-3,4-dihydroxy-1H-pyrrole-2,5-dicarboxylate] was run?
A: The IC50 was 10 to 20 µM.

Q: Which IC50 does the source give for `CCOC(=O)c1c(O)c(OCCO)c(C(=O)OCC)n1-c1ccc(F)cc1` [UL2-025, diethyl 1-(4-fluorophenyl)-3-hydroxy-4-(2-hydroxyethoxy)-1H-pyrrole-2,5-dicarboxylate] here?
A: The IC50 was 20 to 60 µM.

Q: For `CCOC(=O)c1c(O)c(OCCO)c(C(=O)OCC)n1-c1ccc(OC)cc1` [UL2-026, diethyl 3-hydroxy-4-(2-hydroxyethoxy)-1-(4-methoxyphenyl)-1H-pyrrole-2,5-dicarboxylate], which IC50 is on record?
A: The IC50 was 20 to 60 µM.
